Source: paper PMC11975176 (Clinical Pharmacology in Drug Development, 2025)
Like-named read-outs stand apart in the source and are kept apart here.

What was measured:
[1] = NA (ETV, TFV) plasma PK (NCA) with coadministered bepirovirsen in the Phase 2b B-Clear study; assay type: in vivo; conditions: human, oral; for concentration at 24 h: B-Clear, mean ± SD, read-out: Ctau; for AUC(0-t): read-out: AUC0-24
Experimental: NA plasma PK parameters were calculated using NCA methods with Phoenix WinNonlin Version 8.1.0.3530. PK parameters included Cmax, AUC from time zero to 24 hours after dosing, and plasma concentration at the end of the dosing interval. Calculations were based on the actual sampling times. PK samples in the B‐Clear study were assayed for bepirovirsen, ETV, and TFV in plasma at the bioanalytical facility Labcorp Drug Development, Shanghai, China, using validated liquid–liquid extraction for bepirovirsen, solid‐phase extraction for ETV, and protein precipitation for TFV assays followed by high‐performance liquid chromatography with mass spectrometric detection. All plasma samples were assayed within the established long‐term frozen, freeze/thaw, and processed extract stability.

[2] = cited from earlier work

SMILES: C=C1[C@H](CO)[C@@H](O)C[C@@H]1n1cnc2c(=O)[nH]c(N)nc21 [ETV, entecavir]
- Cmax ([1]; 0.5 mg): 6.5 ± 2.3 ng/mL
- concentration at 24 h ([1]; 0.5 mg, ETV 0.5 mg once daily with bepirovirsen): 0.5 ± 0.1 ng/mL
- AUC(0-t) ([1]; 0.5 mg): 24.4 ± 6.8 ng·h/mL
- Cmax ([2]; in vivo, 0.5 mg): 4.2 ng/mL
- tmax ([2]; in vivo): approximately 1 hour

SMILES: C[C@H](Cn1cnc2c(N)ncnc21)OCP(=O)(O)O [TFV, tenofovir]
- Cmax ([1]; 25 mg): 19.4 ± 5.9 ng/mL
- AUC(0-t) ([1]; 25 mg): 308 ± 105 ng·h/mL
- Cmax ([1]; 300 mg): 319 ± 95.9 ng/mL
- AUC(0-t) ([1]; 300 mg): 2750 ± 661 ng·h/mL
- concentration at 24 h ([1]; TFV administered as TAF 25 mg once daily with bepirovirsen): 10.3 ± 3.5 ng/mL
- concentration at 24 h ([1]; TFV administered as TDF 245 or 300 mg once daily with bepirovirsen): 57 ± 17.1 ng/mL
- tmax ([2]; after dosing): approximately 1 hour
- AUC0-24 ([2]; in vivo, 25 mg): 400 (35.2) ng•h/mL
- Cmax ([2]; in vivo, 25 mg): 30.0 (24.6) ng/mL
- AUC0-24 ([2]; in vivo, 300 mg): 2290 ± 690 ng·h/mL
